Experimental data from US9550772B2, “Azaindole derivatives as multi kinase inhibitors” (ORIBASE PHARMA, priority 2012, dated 2017).
Read-outs that look alike come from different tables or passages of the source.

Key:
BRAF = molecular target: T1, BRAF (Homo sapiens, UniProt P15056); assay: In vitro kinase assay (Z'-LYTE, Invitrogen); assay type: biochemical; conditions: compound at 100 nM, ATP Km apparent, read-out: % of inhibition of the kinase compared to the control
T1 construct: purchased Invitrogen
Procedure: (§1) The inhibitory activity of the compounds on 7 kinases (BRAF, EGFR (ErbB1), EGFR (ErbB1) T790M L858R, FGFR2, KDR (VEGFR2), PDGFRA (PDGFR alpha), SRC) was evaluated by Invitrogen using the Z′-LYTE® technology. Briefly, the Z′-LYTE® biochemical assay employs a fluorescence-based, coupled-enzyme format and is based on the differential sensitivity of phosphorylated and non-phosphorylated peptides to proteolytic cleavage. The peptide substrate is labeled with two fluorophores—one at each end—that make up a FRET pair. A ratiometric method, which calculates the ratio (the Emission Ratio) of donor emission to acceptor emission after excitation of the donor fluorophore at 400 nm, is used to quantitate reaction progress.
(§2) The compounds are screened in 1% DMSO (final) in the well. For 10 point titrations, 3-fold serial dilutions are conducted from the starting concentration. All Peptide/Kinase Mixtures are diluted to a 2× working concentration in the appropriate Kinase Buffer. All ATP Solutions are diluted to a 4× working concentration in Kinase Buffer (50 mM HEPES pH 7.5, 0.01% BRIJ-35, 10 mM MgCl2, 1 mM EGTA). ATP Km apparent is previously determined using a Z′-LYTE® assay.
(§3) Each compound was incubated at a concentration of 100 nM and the tables 21 to 27 summarize the results obtained showing the inhibitory power of a compound.

EGFR (ErbB1) = molecular target: T2, EGFR (ErbB1) (Homo sapiens, UniProt P00533); assay: In vitro kinase assay (Z'-LYTE, Invitrogen); assay type: biochemical; conditions: compound at 100 nM, ATP Km apparent, read-out: % of inhibition of the kinase compared to the control
T2 construct: purchased Invitrogen
Procedure: as §1, §2, §3

FGFR2 = molecular target: T3, FGFR2 (Homo sapiens, UniProt P21802); assay: In vitro kinase assay (Z'-LYTE, Invitrogen); assay type: biochemical; conditions: compound at 100 nM, ATP Km apparent, read-out: % of inhibition of the kinase compared to the control
T3 construct: purchased Invitrogen
Procedure: as §1, §2, §3

KDR (VEGFR2) = molecular target: T4, KDR (VEGFR2) (Homo sapiens, UniProt P35968); assay: In vitro kinase assay (Z'-LYTE, Invitrogen); assay type: biochemical; conditions: compound at 100 nM, ATP Km apparent, read-out: % of inhibition of the kinase compared to the control
T4 construct: purchased Invitrogen
Procedure: as §1, §2, §3

PDGFRA (PDGFR alpha) = molecular target: T5, PDGFRA (PDGFR alpha) (Homo sapiens, UniProt P16234); assay: In vitro kinase assay (Z'-LYTE, Invitrogen); assay type: biochemical; conditions: compound at 100 nM, ATP Km apparent, read-out: % of inhibition of the kinase compared to the control
T5 construct: purchased Invitrogen
Procedure: as §1, §2, §3

SRC = molecular target: T6, SRC (Homo sapiens, UniProt P12931); assay: In vitro kinase assay (Z'-LYTE, Invitrogen); assay type: biochemical; conditions: compound at 100 nM, ATP Km apparent, read-out: % of inhibition of the kinase compared to the control
T6 construct: purchased Invitrogen
Procedure: as §1, §2, §3

A549 cell line = assay: In vitro cell proliferation assay (MTT); assay type: cell-based; conditions: Homo sapiens, A549, 72 h, read-out: EC50, anti-proliferative activity
Procedure: (§4) Cancer cell lines (5×10^3 cells per well) or HUVEC (1×10^4 cells per well) or HRMEC (1×10^4 cells per well) were distributed in 96-well plates and incubating in duplicate with escalating concentrations (10 nM to 3 μM) of compounds for 72 hr. Cell proliferation was measured using MTT (3[4,5-dimethylthiazol-2-yl]-2,5-diphenyltetrazolium bromide). The EC50 values were calculated from sigmoidal dose-response curves utilizing Prism 5.0 from Graph-Pad Software (GraphPad Software, La Jolla, Calif., USA), with values normalized to those of DMSO-treated control wells (0%) and 1% SDS control wells (100%).

HUVEC cells = assay: In vitro cell proliferation assay (MTT); assay type: cell-based; conditions: Homo sapiens, 72 hr, read-out: EC50, anti-proliferative activity
Procedure: as §4

HeLa cell line = assay: In vitro cell proliferation assay (MTT); assay type: cell-based; conditions: Homo sapiens, 72 hr, read-out: EC50, anti-proliferative activity
Procedure: as §4

HepG2 cell line = assay: In vitro cell proliferation assay (MTT); assay type: cell-based; conditions: Homo sapiens, HepG2, 72 hr, read-out: EC50, anti-proliferative activity
Procedure: as §4

MDA-MB-231 cell line = assay: In vitro cell proliferation assay (MTT); assay type: cell-based; conditions: Homo sapiens, MDA-MB-231, 72 hr, read-out: EC50, anti-proliferative activity
Procedure: as §4

T2 sequence (P00533 25-1210): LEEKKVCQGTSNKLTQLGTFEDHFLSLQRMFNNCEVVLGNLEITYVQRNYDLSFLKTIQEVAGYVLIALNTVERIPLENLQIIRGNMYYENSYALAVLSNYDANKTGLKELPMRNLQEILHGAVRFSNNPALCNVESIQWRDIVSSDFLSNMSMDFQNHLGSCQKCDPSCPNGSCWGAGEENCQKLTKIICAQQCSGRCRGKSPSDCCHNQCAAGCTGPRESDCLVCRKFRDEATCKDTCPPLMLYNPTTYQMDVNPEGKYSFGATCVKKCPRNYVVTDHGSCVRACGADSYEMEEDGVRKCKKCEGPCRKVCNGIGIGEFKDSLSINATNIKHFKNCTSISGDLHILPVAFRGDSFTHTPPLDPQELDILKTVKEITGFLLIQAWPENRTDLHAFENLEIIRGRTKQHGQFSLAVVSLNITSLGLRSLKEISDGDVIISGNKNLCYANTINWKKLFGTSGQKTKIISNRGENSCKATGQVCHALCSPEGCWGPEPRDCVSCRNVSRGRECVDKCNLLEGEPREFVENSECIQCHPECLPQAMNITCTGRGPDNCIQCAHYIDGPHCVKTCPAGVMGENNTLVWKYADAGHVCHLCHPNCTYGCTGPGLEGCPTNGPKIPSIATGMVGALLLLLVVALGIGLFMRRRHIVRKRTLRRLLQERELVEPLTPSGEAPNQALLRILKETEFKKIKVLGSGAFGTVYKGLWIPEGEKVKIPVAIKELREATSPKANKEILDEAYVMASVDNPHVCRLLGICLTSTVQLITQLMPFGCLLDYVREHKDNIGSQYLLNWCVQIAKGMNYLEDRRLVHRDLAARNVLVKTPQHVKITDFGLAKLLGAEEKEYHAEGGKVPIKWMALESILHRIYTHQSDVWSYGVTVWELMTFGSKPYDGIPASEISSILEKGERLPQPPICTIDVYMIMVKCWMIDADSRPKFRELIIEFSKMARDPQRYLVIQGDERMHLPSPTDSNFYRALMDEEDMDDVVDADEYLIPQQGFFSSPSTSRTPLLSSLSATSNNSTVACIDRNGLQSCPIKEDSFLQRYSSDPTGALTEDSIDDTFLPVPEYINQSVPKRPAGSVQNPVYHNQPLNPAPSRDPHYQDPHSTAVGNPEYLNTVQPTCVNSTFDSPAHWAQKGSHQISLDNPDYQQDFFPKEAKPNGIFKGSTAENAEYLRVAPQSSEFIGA
T4 sequence (P35968 20-1356): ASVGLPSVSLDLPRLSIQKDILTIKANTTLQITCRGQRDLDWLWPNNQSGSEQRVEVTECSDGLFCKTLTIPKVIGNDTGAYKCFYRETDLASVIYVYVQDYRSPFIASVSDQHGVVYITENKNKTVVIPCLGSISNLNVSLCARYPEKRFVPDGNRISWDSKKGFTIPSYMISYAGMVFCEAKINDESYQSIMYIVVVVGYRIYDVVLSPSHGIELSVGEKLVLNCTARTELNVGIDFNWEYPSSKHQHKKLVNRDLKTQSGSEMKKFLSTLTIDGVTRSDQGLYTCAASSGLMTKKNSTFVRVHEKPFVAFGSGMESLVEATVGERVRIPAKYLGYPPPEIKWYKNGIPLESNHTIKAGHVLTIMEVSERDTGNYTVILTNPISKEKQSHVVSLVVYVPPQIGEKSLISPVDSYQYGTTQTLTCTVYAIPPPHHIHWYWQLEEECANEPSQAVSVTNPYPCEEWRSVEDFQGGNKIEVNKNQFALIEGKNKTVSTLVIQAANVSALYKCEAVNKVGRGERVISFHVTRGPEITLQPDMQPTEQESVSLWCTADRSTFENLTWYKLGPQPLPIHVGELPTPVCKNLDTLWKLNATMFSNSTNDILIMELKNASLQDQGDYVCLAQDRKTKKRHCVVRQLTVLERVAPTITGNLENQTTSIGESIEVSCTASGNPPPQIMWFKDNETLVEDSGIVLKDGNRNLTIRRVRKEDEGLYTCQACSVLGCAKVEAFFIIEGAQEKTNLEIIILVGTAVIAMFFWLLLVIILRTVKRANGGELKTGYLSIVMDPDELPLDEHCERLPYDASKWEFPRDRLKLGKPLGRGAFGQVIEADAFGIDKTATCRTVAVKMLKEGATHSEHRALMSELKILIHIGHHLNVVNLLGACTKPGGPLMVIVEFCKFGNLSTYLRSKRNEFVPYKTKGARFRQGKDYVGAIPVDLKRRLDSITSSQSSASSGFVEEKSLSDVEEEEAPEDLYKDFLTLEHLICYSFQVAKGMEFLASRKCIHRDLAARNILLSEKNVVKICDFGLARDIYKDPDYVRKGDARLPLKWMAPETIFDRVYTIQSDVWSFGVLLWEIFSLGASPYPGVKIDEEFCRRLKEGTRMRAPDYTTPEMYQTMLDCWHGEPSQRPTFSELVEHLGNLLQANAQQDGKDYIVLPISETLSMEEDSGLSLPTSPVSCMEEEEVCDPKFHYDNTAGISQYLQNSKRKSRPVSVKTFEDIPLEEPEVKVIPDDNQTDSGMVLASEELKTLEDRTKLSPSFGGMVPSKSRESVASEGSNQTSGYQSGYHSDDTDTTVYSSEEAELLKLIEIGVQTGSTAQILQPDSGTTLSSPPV
T3 sequence (P21802 22-821): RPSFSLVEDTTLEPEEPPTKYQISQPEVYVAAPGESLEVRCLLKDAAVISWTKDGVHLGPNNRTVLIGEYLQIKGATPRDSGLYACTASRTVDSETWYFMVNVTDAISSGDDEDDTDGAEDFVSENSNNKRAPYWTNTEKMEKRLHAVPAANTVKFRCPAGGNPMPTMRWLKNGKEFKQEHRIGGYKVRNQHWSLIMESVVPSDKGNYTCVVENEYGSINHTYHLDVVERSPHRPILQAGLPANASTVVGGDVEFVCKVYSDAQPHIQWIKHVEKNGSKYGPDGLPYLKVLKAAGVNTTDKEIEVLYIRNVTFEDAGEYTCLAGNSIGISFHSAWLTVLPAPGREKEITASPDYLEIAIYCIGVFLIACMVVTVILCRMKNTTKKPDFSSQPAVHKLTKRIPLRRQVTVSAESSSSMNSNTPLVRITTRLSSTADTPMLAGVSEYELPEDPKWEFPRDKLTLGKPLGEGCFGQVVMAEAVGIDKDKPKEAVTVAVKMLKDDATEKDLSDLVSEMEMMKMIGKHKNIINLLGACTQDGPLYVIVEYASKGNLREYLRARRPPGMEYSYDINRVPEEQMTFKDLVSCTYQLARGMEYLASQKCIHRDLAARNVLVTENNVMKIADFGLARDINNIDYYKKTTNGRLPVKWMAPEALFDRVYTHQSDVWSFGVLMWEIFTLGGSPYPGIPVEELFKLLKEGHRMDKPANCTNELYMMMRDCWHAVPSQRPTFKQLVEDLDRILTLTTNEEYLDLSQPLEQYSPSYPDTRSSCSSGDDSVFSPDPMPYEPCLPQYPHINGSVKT
T1 sequence (P15056 whole entry): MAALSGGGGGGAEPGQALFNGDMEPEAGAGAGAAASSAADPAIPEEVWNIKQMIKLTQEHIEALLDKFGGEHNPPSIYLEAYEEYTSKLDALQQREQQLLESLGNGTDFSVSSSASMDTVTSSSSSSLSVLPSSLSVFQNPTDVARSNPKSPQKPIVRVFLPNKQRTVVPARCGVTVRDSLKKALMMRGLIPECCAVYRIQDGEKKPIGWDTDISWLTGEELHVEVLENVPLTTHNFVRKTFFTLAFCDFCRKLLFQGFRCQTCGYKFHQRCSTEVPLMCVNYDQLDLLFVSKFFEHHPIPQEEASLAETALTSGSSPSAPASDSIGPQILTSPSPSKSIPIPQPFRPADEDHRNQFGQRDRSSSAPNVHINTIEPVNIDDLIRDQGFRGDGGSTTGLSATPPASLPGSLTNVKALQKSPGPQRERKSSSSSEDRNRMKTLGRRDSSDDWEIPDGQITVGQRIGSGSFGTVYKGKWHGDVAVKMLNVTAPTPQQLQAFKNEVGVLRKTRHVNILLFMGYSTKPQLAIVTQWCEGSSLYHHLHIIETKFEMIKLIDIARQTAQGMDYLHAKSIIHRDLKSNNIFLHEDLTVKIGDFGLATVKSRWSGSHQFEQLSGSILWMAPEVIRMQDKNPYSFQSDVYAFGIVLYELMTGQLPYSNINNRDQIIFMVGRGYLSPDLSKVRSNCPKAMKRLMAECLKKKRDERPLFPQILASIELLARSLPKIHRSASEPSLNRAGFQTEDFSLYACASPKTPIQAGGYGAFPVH
T6 sequence (P12931 whole entry): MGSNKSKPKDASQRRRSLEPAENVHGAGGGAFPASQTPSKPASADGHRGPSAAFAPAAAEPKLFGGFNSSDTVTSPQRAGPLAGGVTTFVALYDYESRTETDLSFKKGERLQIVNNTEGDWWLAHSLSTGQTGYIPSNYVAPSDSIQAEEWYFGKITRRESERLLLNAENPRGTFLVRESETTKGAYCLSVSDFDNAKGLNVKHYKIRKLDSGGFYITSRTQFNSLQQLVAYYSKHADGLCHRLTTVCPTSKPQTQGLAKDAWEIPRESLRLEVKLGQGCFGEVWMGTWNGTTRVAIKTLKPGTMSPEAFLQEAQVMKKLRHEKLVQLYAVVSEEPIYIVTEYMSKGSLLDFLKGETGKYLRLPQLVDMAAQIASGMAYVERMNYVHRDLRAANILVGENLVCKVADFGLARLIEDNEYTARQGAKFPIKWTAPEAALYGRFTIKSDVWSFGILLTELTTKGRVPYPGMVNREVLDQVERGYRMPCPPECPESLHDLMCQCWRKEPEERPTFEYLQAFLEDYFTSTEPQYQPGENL

| SMILES | inhibition at 0.1 µM (BRAF) [%] | inhibition at 0.1 µM (EGFR (ErbB1)) [%] | inhibition at 0.1 µM (FGFR2) [%] | inhibition at 0.1 µM (KDR (VEGFR2)) [%] | inhibition at 0.1 µM (PDGFRA (PDGFR alpha)) [%] | inhibition at 0.1 µM (SRC) [%] | EC50 (A549 cell line; EC50 ≧ 1 μM) [nM] | EC50 (HUVEC cells; EC50 ≧ 1 μM) [nM] | EC50 (HeLa cell line; EC50 ≧ 1 μM) [nM] | EC50 (HepG2 cell line; EC50 ≦ 100 nM) [nM] | EC50 (MDA-MB-231 cell line; 100 nM < EC50 < 1 μM) [nM] | EC50 (HepG2 cell line; EC50 ≧ 1 μM) [nM] | EC50 (MDA-MB-231 cell line; EC50 ≧ 1 μM) [nM] | EC50 (HUVEC cells; 100 nM < EC50 < 1 μM) [nM] | EC50 (HeLa cell line; 100 nM < EC50 < 1 μM) [nM] | EC50 (A549 cell line; 100 nM < EC50 < 1 μM) [nM] | EC50 (HUVEC cells; EC50 ≦ 100 nM) [nM] | EC50 (HeLa cell line; EC50 ≦ 100 nM) [nM] | EC50 (HepG2 cell line; 100 nM < EC50 < 1 μM) [nM] | EC50 (MDA-MB-231 cell line; EC50 ≦ 100 nM) [nM] |
| --- | --- | --- | --- | --- | --- | --- | --- | --- | --- | --- | --- | --- | --- | --- | --- | --- | --- | --- | --- | --- |
| CC(=O)c1cc2cc(CCc3cc(NC(=O)Nc4cccc(C(F)(F)F)c4)ccc3C)cnc2[nH]1 [OR0919, 1-{3-[2-(2-Acetyl-1H-pyrrolo[2,3-b]pyridin-5-yl)-ethyl]-4-methyl-phenyl}-3-(3-trifluoromethyl-phenyl)-urea] | < 50 | < 50 | < 50 | < 50 | ≥ 50 | < 50 | ≥ 1000 | ≥ 1000 | ≥ 1000 | ≤ 100 | 100 to 1000 | – | – | – | – | – | – | – | – | – |
| COC(=O)c1cc2cc(CCc3cc(NC(=O)c4cncc(C(F)(F)F)c4)ccc3Cl)cnc2[nH]1 [OR1008, 5-(2-{2-Chloro-5-[(5-trifluoromethyl-pyridine-3-carbonyl)-amino]-phenyl}-ethyl)-1H-pyrrolo[2,3-b]pyridine-2-carboxylic acid methyl ester] | ≥ 50 | < 50 | < 50 | ≥ 50 | – | – | ≥ 1000 | ≥ 1000 | ≥ 1000 | – | – | ≥ 1000 | ≥ 1000 | – | – | – | – | – | – | – |
| COC(=O)c1cc2cc(NCCc3cccc(NC(=O)c4ccc(CN5CCN(C)CC5)c(C(F)(F)F)c4)c3)cnc2[nH]1 [OR1019, 5-(2-{3-[4-(4-Methyl-piperazin-1-ylmethyl)-3-trifluoromethyl-benzoylamino]-phenyl}-ethylamino)-1H-pyrrolo[2,3-b]pyridine-2-carboxylic acid methyl ester] | < 50 | ≥ 50 | < 50 | ≥ 50 | – | – | ≥ 1000 | ≥ 1000 | ≥ 1000 | – | 100 to 1000 | ≥ 1000 | – | – | – | – | – | – | – | – |
| COC(=O)c1cc2cc(CCc3cc(NC(=O)c4ccc(CN5CCC(N(C)C)C5)c(C(F)(F)F)c4)ccc3Cl)cnc2[nH]1 (centres unmarked) [OR1007, 5-(2-{2-Chloro-5-[4-(3-dimethylamino-pyrrolidin-1-ylmethyl)-3-trifluoromethyl-benzoylamino]-phenyl}-ethyl)-1H-pyrrolo[2,3-b]pyridine-2-carboxylic acid methyl ester] | < 50 | ≥ 50 | ≥ 50 | ≥ 50 | – | – | ≥ 1000 | – | ≥ 1000 | – | – | ≥ 1000 | ≥ 1000 | 100 to 1000 | – | – | – | – | – | – |
| COC(=O)c1cc2cc(CCc3cccc(CNC(=O)c4ccc(CN5CCN(C)CC5)c(C(F)(F)F)c4)c3)cnc2[nH]1 [OR1018, 5-[2-(3-{[4-(4-Methyl-piperazin-1-ylmethyl)-3-trifluoromethyl-benzoylamino]-methyl}-phenyl)-ethyl]-1H-pyrrolo[2,3-b]pyridine-2-carboxylic acid methyl ester] | < 50 | < 50 | < 50 | ≥ 50 | – | – | ≥ 1000 | ≥ 1000 | ≥ 1000 | – | – | ≥ 1000 | ≥ 1000 | – | – | – | – | – | – | – |
| COC(=O)c1cc2cc(CCc3ccc(C)c(NC(=O)c4ccc(CN5CCC(N(C)C)C5)c(C(F)(F)F)c4)c3)cnc2[nH]1 (centres unmarked) [OR1044, 5-(2-{5-[4-(3-Dimethylamino-pyrrolidin-1-ylmethyl)-3-trifluoromethyl-benzoylamino]-4-methyl-phenyl}-ethyl)-1H-pyrrolo[2,3-b]pyridine-2-carboxylic acid methyl ester] | < 50 | ≥ 50 | ≥ 50 | ≥ 50 | – | – | ≥ 1000 | – | – | – | – | ≥ 1000 | ≥ 1000 | 100 to 1000 | 100 to 1000 | – | – | – | – | – |
| COC(=O)c1cc2cc(CCc3cc(NC(=O)c4ccc(CN5CCN(C)CC5)c(C(F)(F)F)c4)ccc3Cl)cnc2[nH]1 [OR1006, 5-(2-{2-Chloro-5-[4-(4-methyl-piperazin-1-ylmethyl)-3-trifluoromethyl-benzoylamino]-phenyl}ethyl)-1H-pyrrolo[2,3-b]pyridine-2-carboxylic acid methyl ester] | < 50 | ≥ 50 | ≥ 50 | ≥ 50 | – | – | – | – | – | – | 100 to 1000 | ≥ 1000 | – | – | 100 to 1000 | 100 to 1000 | ≤ 100 | – | – | – |
| COC(=O)c1cc2cc(CNCc3cccc(NC(=O)c4ccc(CN5CCN(C)CC5)c(C(F)(F)F)c4)c3)cnc2[nH]1 [OR1020, 5-({3-[4-(4-Methyl-piperazin-1-ylmethyl)-3-trifluoromethyl-benzoylamino]-benzylamino}-methyl)-1H-pyrrolo[2,3-b]pyridine-2-carboxylic acid methyl ester] | < 50 | < 50 | < 50 | ≥ 50 | – | – | ≥ 1000 | ≥ 1000 | ≥ 1000 | – | – | ≥ 1000 | ≥ 1000 | – | – | – | – | – | – | – |
| COC(=O)c1cc2cc(CCc3cccc(NC(=O)c4ccc(CN5CCN(C)CC5)c(C(F)(F)F)c4)c3)cnc2[nH]1 [OR0921, 5-(2-{3-[4-(4-Methyl-piperazin-1-ylmethyl)-3-trifluoromethyl-benzoylamino]-phenyl}-ethyl)-1H-pyrrolo[2,3-b]pyridine-2-carboxylic acid methyl ester] | < 50 | ≥ 50 | ≥ 50 | ≥ 50 | – | – | – | – | – | – | – | – | – | – | – | 100 to 1000 | ≤ 100 | ≤ 100 | 100 to 1000 | ≤ 100 |
| CC(=O)c1cc2cc(CCc3cc(NC(=S)Nc4cccc(C(F)(F)F)c4)ccc3C)cnc2[nH]1 [OR1017, 1-{3-[2-(2-Acetyl-1H-pyrrolo[2,3-b]pyridin-5-yl)-ethyl]-4-methyl-phenyl}-3-(3-trifluoromethyl-phenyl)-thiourea] | < 50 | < 50 | < 50 | < 50 | – | – | ≥ 1000 | ≥ 1000 | ≥ 1000 | – | – | – | ≥ 1000 | – | – | – | – | – | 100 to 1000 | – |
